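All cell lines were grown in 96-well plates and treated with compound for 48 hours. At the GI50, growth is halved. TGI: concentration producing complete growth inhibition.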 *1 amine or outer side, *2 acyl side, *3 side chain or, on linkers, in order; H or OH if unused. Where a SMILES comes first, the peptide text is derived from it. [ ]: non-standard residue; d: D form. The star is where a group is joined. X12 = NCCCCC(N[*:1])C(=O)CN1CCCC1C(=O)[*:2]; Pentadecanoyl = CCCCCCCCCCCCCCC(=O)*

This is an account of results in PubChem BioAssay (NCI).

Test systems include 786-0 renal; ACHN renal; HCT-116 colon; NCI-H460 lung; RXF 393 renal; SF-539 CNS; SK-MEL-28 melanoma; SW-620 colon; UO-31 renal.
Holding throughout (test): DTP human tumour cell line panel, 48 h

In the case of `Cc1cc(S(=O)(=O)Nc2n[nH]c(N)n2)c(S)cc1Cl`, the TGI with 786-0 renal, in the assay on ACHN renal, with HCT-116 colon, in the assay on NCI-H460 lung, with RXF 393 renal and in the assay with SF-539 CNS was above 10 µM each time. In addition, the concentration for total growth inhibition (TGI) in the assay with SK-MEL-28 melanoma and with SW-620 colon was above 10 µM throughout.

For `CCCCCCCCCCCCCCC(=O)NC(CCCCN)C(=O)CN1CCCC1C(=O)NCC(=O)NC(Cc1ccccc1)C(=O)N1CCCC1C(=O)NC(CO)C(=O)NC(Cc1ccc(O)cc1)C(=O)NC(CCCCN)C(=O)NC(CC(C)C)C(=O)NC(CCCN=C(N)N)C(=O)N1CCCC1C(=O)NCC(N)=O` (configuration not stated) (Pentadecanoyl-[X12]GFPSYKLRPG-NH2; configuration not given here), the GI50 in the assay on HCT-116 colon was 14.2 µM; in the assay on NCI-H460 lung, 28.3 µM; in the assay with RXF 393 renal it was 26.1 µM; in the assay with SF-539 CNS it was 27.2 µM; in the assay on SK-MEL-28 melanoma, 25.7 µM; with SW-620 colon, 29.9 µM. Also, the GI50 with UO-31 renal is 22.6 µM. The TGI in the assay on HCT-116 colon is 29.6 µM; in the assay with NCI-H460 lung it was 83.7 µM; in the assay on RXF 393 renal it was 60.4 µM; in the assay on SF-539 CNS, 59.9 µM; in the assay with SK-MEL-28 melanoma, 60.6 µM; with SW-620 colon it was 80.9 µM. In addition, in the assay on UO-31 renal, the TGI came to 60.2 µM.

On to `c1ccc(C2C3=C(CCCC3)Nc3nnnn32)cc1` (configuration not stated), for which the TGI was above 100 µM in the assay on 786-0 renal; above 100 µM with ACHN renal; above 100 µM in the assay on HCT-116 colon; above 100 µM in the assay on NCI-H460 lung; 27.8 µM in the assay with RXF 393 renal; above 100 µM with SF-539 CNS. For the same molecule, the total growth inhibition concentration (TGI) with SW-620 colon and in the assay on UO-31 renal was above 100 µM throughout.

In the case of `CCCCCC(=O)OCC1(CO)C/C(=C/CC(C(C)C)C(C)C)C(=O)O1` (configuration not stated), the total growth inhibition concentration (TGI) in the assay with 786-0 renal, with ACHN renal, in the assay with HCT-116 colon, in the assay on NCI-H460 lung, in the assay with RXF 393 renal and in the assay on SK-MEL-28 melanoma was above 75 µM in each case. Besides, the concentration for total growth inhibition (TGI) with SW-620 colon was above 75 µM; in the assay with UO-31 renal it was 38.2 µM.

With `CCOC(=O)/C=C/C(Br)=C(Br)/C=C/C(=O)OCC`, the TGI is 8.61 µM in the assay on 786-0 renal; 25.8 µM with ACHN renal; 17 µM in the assay on HCT-116 colon; above 100 µM in the assay with NCI-H460 lung; 24.9 µM in the assay on RXF 393 renal; 33.4 µM in the assay on SK-MEL-28 melanoma. Besides, the results for the total growth inhibition concentration (TGI) with SW-620 colon and with UO-31 renal were 5.31 µM and 23.8 µM, respectively.

`CC1C/C(=C\c2ccc(O)c(O)c2)C(=O)/C(=C/c2ccc(O)c(O)c2)C1` (configuration not stated): the TGI with ACHN renal is 21.6 µM; with HCT-116 colon, 20 µM; in the assay on NCI-H460 lung, 32.2 µM; with RXF 393 renal, 14.4 µM; in the assay on SF-539 CNS it was 13 µM; with SK-MEL-28 melanoma it was 20.3 µM. Besides, the total growth inhibition concentration (TGI) in the assay on SW-620 colon is 34.6 µM.

Regarding `CC1CC2OC(=N)C1(C#N)C2(C#N)C#N` (configuration not stated), the total growth inhibition concentration (TGI) in the assay with 786-0 renal is 44.9 µM; in the assay with ACHN renal, above 100 µM; in the assay on HCT-116 colon, 43.3 µM; in the assay with RXF 393 renal, 31.1 µM; in the assay on SF-539 CNS it was 56.7 µM; in the assay with SK-MEL-28 melanoma, above 100 µM. Also, the results for the total growth inhibition concentration (TGI) in the assay with SW-620 colon and in the assay on UO-31 renal were above 100 µM and 93 µM, respectively.

Consider `COc1ccc(Cn2nc(OCc3ccccc3)c3cc([N+](=O)[O-])ccc32)cc1`, for which the total growth inhibition concentration (TGI) with 786-0 renal, in the assay with ACHN renal, in the assay with NCI-H460 lung, in the assay with RXF 393 renal, in the assay with SF-539 CNS and in the assay with SK-MEL-28 melanoma was above 100 µM in each case. Further, in the assay with SW-620 colon, the TGI is above 100 µM.

Consider `O=C(c1cccs1)N(C(=O)N1CCCCC1)c1ccccc1`, for which the total growth inhibition concentration (TGI) with 786-0 renal, in the assay on ACHN renal, in the assay with HCT-116 colon, in the assay with RXF 393 renal, with SF-539 CNS and in the assay on SK-MEL-28 melanoma was above 100 µM each time. For the same molecule, the concentration for total growth inhibition (TGI) with SW-620 colon and in the assay with UO-31 renal was above 100 µM in each case.

With `COc1cc(C)c(S(=O)(=O)N(CCCN)OCCCN)c(C)c1C`, the concentration for total growth inhibition (TGI) was above 100 µM with 786-0 renal; above 100 µM in the assay on ACHN renal; above 100 µM with HCT-116 colon; above 100 µM in the assay on NCI-H460 lung; 90 µM in the assay with RXF 393 renal; above 100 µM with SK-MEL-28 melanoma. In addition, the TGI in the assay on SW-620 colon and in the assay with UO-31 renal was above 100 µM throughout.

`CO/C=C(/C(=O)OC)c1ccccc1[C@H]1C[C@@H]1c1ccccc1`: the concentration for total growth inhibition (TGI) in the assay on 786-0 renal is above 100 µM; in the assay with ACHN renal, 60.6 µM; with HCT-116 colon, 62.5 µM; in the assay with NCI-H460 lung it was 88.6 µM; with RXF 393 renal, above 100 µM; in the assay on SF-539 CNS it was 42.7 µM. Further, the values for the concentration for total growth inhibition (TGI) with SK-MEL-28 melanoma and in the assay with UO-31 renal were 64.2 µM and above 100 µM, respectively.

Regarding `NS(=O)(=O)c1ccc(NS(=O)(=O)c2ccc(NC(=O)N(c3ccccc3)c3ccccc3)cc2)cc1`, the concentration for total growth inhibition (TGI) was above 100 µM with 786-0 renal; above 100 µM in the assay with ACHN renal; above 100 µM in the assay on HCT-116 colon; above 100 µM with NCI-H460 lung; 80.9 µM in the assay with RXF 393 renal; above 100 µM in the assay on SK-MEL-28 melanoma. Besides, the total growth inhibition concentration (TGI) in the assay with SW-620 colon and in the assay on UO-31 renal was above 100 µM throughout.

`N#Cc1c(NC(=S)Nc2ccccc2)sc2c1CCCC2`: the TGI with 786-0 renal, with ACHN renal, with HCT-116 colon, with NCI-H460 lung, in the assay on RXF 393 renal and in the assay with SK-MEL-28 melanoma was above 100 µM throughout. Moreover, the TGI in the assay with SW-620 colon and in the assay on UO-31 renal was above 100 µM throughout.

In the case of `C=C1CC2C[C@H](OS(=O)(=O)c3ccc(C)cc3)C(C1)N2C` (some centres not stated), the concentration for total growth inhibition (TGI) with 786-0 renal, in the assay with HCT-116 colon, in the assay on NCI-H460 lung, with RXF 393 renal, with SF-539 CNS and in the assay with SK-MEL-28 melanoma was above 100 µM throughout. Further, the total growth inhibition concentration (TGI) in the assay with SW-620 colon and in the assay with UO-31 renal was above 100 µM in each case.

Consider `Cc1nc(C)c(C(=O)NNC(=O)c2ccccc2)cc1C(=O)NNC(=O)c1ccccc1`, for which the TGI in the assay on 786-0 renal, with ACHN renal, in the assay on HCT-116 colon, with NCI-H460 lung, with RXF 393 renal and with SF-539 CNS was above 100 µM throughout. The total growth inhibition concentration (TGI) in the assay on SW-620 colon and in the assay on UO-31 renal was above 100 µM throughout.

With `[O-][n+]1cc(SCc2ccccc2)ncc1SCc1ccccc1`, the total growth inhibition concentration (TGI) in the assay on 786-0 renal, in the assay on ACHN renal, with HCT-116 colon, with NCI-H460 lung, in the assay with RXF 393 renal and in the assay on SF-539 CNS was above 10 µM throughout. The TGI in the assay with SK-MEL-28 melanoma and with UO-31 renal was above 10 µM in each case.

One may read the TGI as the concentration giving total growth inhibition. Low values mean greater sensitivity of the cells, high ones lower sensitivity of the cells. Broadly, the GI50 is the concentration giving 50% growth inhibition.
